Species: Rattus norvegicus
Assay: DrugMatrix - Regimen: Daily Repeat
Assay type: toxicity, organism-based, Sprague-Dawley
Parameters: regimen Daily Repeat, gender Male, age 6-8 weeks
Settings: in vivo, po, route oral GAVAGE, vehicle 100 % WATER; for ABSOLUTE BASOPHIL / ABSOLUTE EOSINOPHIL / ABSOLUTE LYMPHOCYTE / ABSOLUTE MONOCYTE / ABSOLUTE SEGMENTED NEUTROPHIL / BASOPHIL / EOSINOPHIL / ERYTHROCYTE COUNT / HEMATOCRIT / HEMOGLOBIN / LEUKOCYTE COUNT / LYMPHOCYTE / MEAN CORPUSCULAR HEMOGLOBIN / MEAN CORPUSCULAR HEMOGLOBIN CONCENTRATION / MEAN CORPUSCULAR VOLUME / MONOCYTE / NEUTROPHIL / NUCLEATED RED BLOOD CELLS / PLATELET COUNT: tissue Blood; for ALANINE AMINOTRANSFERASE / ALBUMIN / ALKALINE PHOSPHATASE / ASPARTATE AMINOTRANSFERASE / BLOOD UREA NITROGEN / CARBON DIOXIDE / CHLORIDE / CHOLESTEROL / CREATINE PHOSPHOKINASE / CREATININE / GLUCOSE / LACTATE DEHYDROGENASE / LIPASE / PHOSPHORUS / POTASSIUM / SODIUM / TOTAL BILIRUBIN / TOTAL PROTEIN / URIC ACID: tissue Plasma
[1] = 0 mg/kg, 72 h, dose level Control, time 3 day
[2] = 0 mg/kg, 120 h, dose level Control, time 5 day
[3] = 20 mg/kg, 72 h, dose level Low, time 3 day

SMILES: CN(C)CCC=C1c2ccccc2CCc2ccccc21 [AMITRIPTYLINE]
- ABSOLUTE BASOPHIL [1]: 0 CELLS/uL
- ABSOLUTE EOSINOPHIL [1]: 58.83 CELLS/uL
- ABSOLUTE LYMPHOCYTE [1]: 11823.5 CELLS/uL
- ABSOLUTE MONOCYTE [1]: 169 CELLS/uL
- ABSOLUTE SEGMENTED NEUTROPHIL [1]: 815.33 CELLS/uL
- BASOPHIL [1]: 0%
- EOSINOPHIL [1]: 0.5%
- ERYTHROCYTE COUNT [1]: 5.52 x10E6/uL
- HEMATOCRIT [1]: 35.77%
- HEMOGLOBIN [1]: 14.28 G/DL
- LEUKOCYTE COUNT [1]: 12.87 x10E3/uL
- LYMPHOCYTE [1]: 91.67%
- MEAN CORPUSCULAR HEMOGLOBIN [1]: 25.92 pg
- MEAN CORPUSCULAR HEMOGLOBIN CONCENTRATION [1]: 39.95 G/DL
- MEAN CORPUSCULAR VOLUME [1]: 64.85 fL
- MONOCYTE [1]: 1.33%
- NEUTROPHIL [1]: 6.5%
- NUCLEATED RED BLOOD CELLS [1]: 0 /100WBC
- PLATELET COUNT [1]: 1246.17 x10E3/uL
- ALANINE AMINOTRANSFERASE [1]: 66 u/L
- ALBUMIN [1]: 4.25 G/DL
- ALKALINE PHOSPHATASE [1]: 416 u/L
- ASPARTATE AMINOTRANSFERASE [1]: 106.17 u/L
- BLOOD UREA NITROGEN [1]: 12.67 mg/dL
- CARBON DIOXIDE [1]: 31.83 mmol/L
- CHLORIDE [1]: 102.5 MEQ/L
- CHOLESTEROL [1]: 69 mg/dL
- CREATINE PHOSPHOKINASE [1]: 601.83 u/L
- CREATININE [1]: 0.18 mg/dL
- GLUCOSE [1]: 154.5 mg/dL
- LACTATE DEHYDROGENASE [1]: 301.83 u/L
- LIPASE [1]: 11.17 u/L
- PHOSPHORUS [1]: 12.08 mg/dL
- POTASSIUM [1]: 6.12 MEQ/L
- SODIUM [1]: 145.2 MEQ/L
- TOTAL BILIRUBIN [1]: 0.17 mg/dL
- TOTAL PROTEIN [1]: 6.1 G/DL
- URIC ACID [1]: 1.57 mg/dL
- ABSOLUTE BASOPHIL [2]: 0 CELLS/uL
- ABSOLUTE EOSINOPHIL [2]: 19.33 CELLS/uL
- ABSOLUTE LYMPHOCYTE [2]: 12577.83 CELLS/uL
- ABSOLUTE MONOCYTE [2]: 106.33 CELLS/uL
- ABSOLUTE SEGMENTED NEUTROPHIL [2]: 896.5 CELLS/uL
- BASOPHIL [2]: 0%
- EOSINOPHIL [2]: 0.17%
- ERYTHROCYTE COUNT [2]: 5.84 x10E6/uL
- HEMATOCRIT [2]: 36.88%
- HEMOGLOBIN [2]: 14.48 G/DL
- LEUKOCYTE COUNT [2]: 13.6 x10E3/uL
- LYMPHOCYTE [2]: 92.17%
- MEAN CORPUSCULAR HEMOGLOBIN [2]: 24.85 pg
- MEAN CORPUSCULAR HEMOGLOBIN CONCENTRATION [2]: 39.3 G/DL
- MEAN CORPUSCULAR VOLUME [2]: 63.23 fL
- MONOCYTE [2]: 0.83%
- NEUTROPHIL [2]: 6.83%
- NUCLEATED RED BLOOD CELLS [2]: 0 /100WBC
- PLATELET COUNT [2]: 1223.5 x10E3/uL
- ALANINE AMINOTRANSFERASE [2]: 55.33 u/L
- ALBUMIN [2]: 4.08 G/DL
- ALKALINE PHOSPHATASE [2]: 355.5 u/L
- ASPARTATE AMINOTRANSFERASE [2]: 87.67 u/L
- BLOOD UREA NITROGEN [2]: 15.33 mg/dL
- CARBON DIOXIDE [2]: 33.83 mmol/L
- CHLORIDE [2]: 99.67 MEQ/L
- CHOLESTEROL [2]: 72.17 mg/dL
- CREATINE PHOSPHOKINASE [2]: 268.33 u/L
- CREATININE [2]: 0.15 mg/dL
- GLUCOSE [2]: 152.5 mg/dL
- LACTATE DEHYDROGENASE [2]: 212.67 u/L
- LIPASE [2]: 10.83 u/L
- PHOSPHORUS [2]: 11.65 mg/dL
- POTASSIUM [2]: 6.73 MEQ/L
- SODIUM [2]: 142.43 MEQ/L
- TOTAL BILIRUBIN [2]: 0.23 mg/dL
- TOTAL PROTEIN [2]: 6.07 G/DL
- URIC ACID [2]: 1.7 mg/dL
- ABSOLUTE BASOPHIL [3]: 0 CELLS/uL
- ABSOLUTE EOSINOPHIL [3]: 43.67 CELLS/uL
- ABSOLUTE LYMPHOCYTE [3]: 12245.67 CELLS/uL
- ABSOLUTE MONOCYTE [3]: 111.33 CELLS/uL
- ABSOLUTE SEGMENTED NEUTROPHIL [3]: 1432.67 CELLS/uL
- BASOPHIL [3]: 0%
- EOSINOPHIL [3]: 0.33%
- ERYTHROCYTE COUNT [3]: 5.6 x10E6/uL
- HEMATOCRIT [3]: 36.3%
- HEMOGLOBIN [3]: 14.5 G/DL
- LEUKOCYTE COUNT [3]: 13.83 x10E3/uL
- LYMPHOCYTE [3]: 88.33%
- MEAN CORPUSCULAR HEMOGLOBIN [3]: 25.93 pg
- MEAN CORPUSCULAR HEMOGLOBIN CONCENTRATION [3]: 39.97 G/DL
- MEAN CORPUSCULAR VOLUME [3]: 64.87 fL
- MONOCYTE [3]: 0.67%
- NEUTROPHIL [3]: 10.67%
- NUCLEATED RED BLOOD CELLS [3]: 0 /100WBC
- PLATELET COUNT [3]: 1222 x10E3/uL
- ALANINE AMINOTRANSFERASE [3]: 53 u/L
- ALBUMIN [3]: 4.33 G/DL
- ALKALINE PHOSPHATASE [3]: 377.33 u/L
- ASPARTATE AMINOTRANSFERASE [3]: 92 u/L
- BLOOD UREA NITROGEN [3]: 14.67 mg/dL
- CARBON DIOXIDE [3]: 31.33 mmol/L
- CHLORIDE [3]: 103 MEQ/L
- CHOLESTEROL [3]: 67.33 mg/dL
- CREATINE PHOSPHOKINASE [3]: 466 u/L
- CREATININE [3]: 0.22 mg/dL
- GLUCOSE [3]: 137.33 mg/dL
- LACTATE DEHYDROGENASE [3]: 318.67 u/L
- LIPASE [3]: 12.67 u/L
- PHOSPHORUS [3]: 11.77 mg/dL
- POTASSIUM [3]: 6.47 MEQ/L
- SODIUM [3]: 145.83 MEQ/L
- TOTAL BILIRUBIN [3]: 0.2 mg/dL
- TOTAL PROTEIN [3]: 6.03 G/DL
- URIC ACID [3]: 1.5 mg/dL

Source: ChEMBL document CHEMBL3885881, “DrugMatrix”
